The results in this text go back to patent US11098040B2, “Compounds and methods of use” (Ferro Therapeutics, Inc., priority 2018, dated 2021).

In the first assay the test system is MV-4-1. In words: Cell viability assay (CellTiter Glo), leukemia cell line MV-4-1. The assay is classed as cell-based. The note with it: 96 hours. The method, then: (§1) Cell viability assay was performed to assess the potency of the compounds in human cancer cell lines KP4 (pancreatic ductal adenocarcinoma), MiaPaCa-2 (pancreatic carcinoma), AsPC-1 (pancreatic adenocarcinoma, ascites), 143B (osteosarcoma), and SJSA-1 (osteosarcoma). Selected compounds were also assayed in a human breast epithelial cell line MCF-10A, a nontumorigenic cell line as a control to assess differential activity. Cells at a density of 500-5,000 cells/well were seeded in 96-well plates and incubated at 37° C. overnight. A series of 9 different concentrations of compound stocks (500×) were created by 3-fold serial dilution in DMSO. These compounds were further diluted in culture media and then added to cells so that the final DMSO concentration was equal to 0.25% or less. After 96 hours of incubation, 50 μL of CellTiter Glo reagent (Promega) was added to each well and luminescence was measured after 10 minutes using EnVision (PerkinElmer). Compounds titrated from top concentration of up to 30 μM. The select compounds were tested initially from 30 μM as the top concentration in duplicates (range of 4.6 nM-30 μM). […] Luminescence from cells treated with DMSO alone was set as Max and % of inhibition was calculated as follows: Inhibition %=(Max-Sample value)/Max*100. Data was analyzed using XL-fit software (ID Business Solutions Ltd.). IC50, relative IC50, or % of top inhibition was calculated.
(§2) A group of selected analogs were further profiled in cell viability assays described above in multiple additional cancer cell lines, including lung cancer, melanoma, hepatocarcinoma, pancreatic cancer, leukemia, lymphoma, ovarian cancer, breast cancer, colon cancer, and sarcoma cell lines. Initial cell seeding numbers were adjusted for each cell line. Typically, 500-5000 cells/well for adherent cells and 5000-10000/well for suspension cells were seeded in 96-well plates.
The results of the assay in the leukemia cell lines are given in Table 16a for MV-4-1 and Table 16b for HL-60 and Kasumi-1.
On the technique in general: In ATP-based viability assays light output follows the ATP content of the culture.
As a reminder, the IC50 is the concentration at which inhibition is half-maximal. Take `COC(=O)c1ccc([C@@H]2c3[nH]c4ccc(Cl)cc4c3C[C@H](C(=O)OC)N2C(=O)CCl)cc1` [Example 94]: 0.083 µM corresponded to half-maximal inhibition (IC50).
Still for that read-out and setting: for `CC[C@H]1Cc2c([nH]c3ccccc23)[C@H](c2ccc(C(=O)OC)cc2)N1C(=O)CCl` [Example 98] the value was 0.065 µM; for `C[C@H]1Cc2c([nH]c3ccccc23)[C@H](c2ccc(S(=O)(=O)N[C@]34CC5C[C@H](C[C@H](C5)C3)C4)cc2)N1C(=O)CCl` [Example 101], 0.174 µM.

The subject of a further assay is H2228. In words: Cell viability assay (CellTiter Glo), lung cancer cell line H2228. The assay is classed as cell-based. The note with it: Homo sapiens, NCI-H2228; lung cancer cell line, 96 hours, CellTiter Glo; read-out: IC50 H2228. The method, then:
as §1, §2
As to `COC(=O)c1ccc([C@@H]2c3[nH]c4ccc(Cl)cc4c3C[C@H](C(=O)OC)N2C(=O)CCl)cc1` [Example 94], the IC50 stood at 0.019 µM.
For `CC[C@H]1Cc2c([nH]c3ccccc23)[C@H](c2ccc(C(=O)OC)cc2)N1C(=O)CCl` [Example 98], the IC50 is 0.017 µM.
On the same count and under the same terms, the same measure for `C[C@H]1Cc2c([nH]c3ccccc23)[C@H](c2ccc(S(=O)(=O)N[C@]34CC5C[C@H](C[C@H](C5)C3)C4)cc2)N1C(=O)CCl` [Example 101]: 0.163 µM.

For a further assay, the system named is REC-1. In words: Cell viability assay (CellTiter Glo), lymphoma cell line REC-1. The assay is classed as cell-based. The note with it: Homo sapiens, Rec1, 96 hours. The method, then: as §1, §2
For `COC(=O)c1ccc([C@@H]2c3[nH]c4ccc(Cl)cc4c3C[C@H](C(=O)OC)N2C(=O)CCl)cc1` [Example 94], the midpoint of inhibition, the IC50, lay at 0.029 µM.
Still for that read-out and setting: for `CC[C@H]1Cc2c([nH]c3ccccc23)[C@H](c2ccc(C(=O)OC)cc2)N1C(=O)CCl` [Example 98] the value was 0.061 µM; for `C[C@H]1Cc2c([nH]c3ccccc23)[C@H](c2ccc(S(=O)(=O)N[C@]34CC5C[C@H](C[C@H](C5)C3)C4)cc2)N1C(=O)CCl` [Example 101], 0.191 µM.

A further assay concerns H1299. In words: Cell viability assay (CellTiter Glo), lung cancer cell line H1299. The format is cell-based. The note with it: Homo sapiens, NCI-H1299, 96 hours. On the procedure:
as §1, §2
In turn, `COC(=O)c1ccc([C@@H]2c3[nH]c4ccc(Cl)cc4c3C[C@H](C(=O)OC)N2C(=O)CCl)cc1` [Example 94] showed an IC50 of 0.005 µM.
On the same count and under the same terms, for `CC[C@H]1Cc2c([nH]c3ccccc23)[C@H](c2ccc(C(=O)OC)cc2)N1C(=O)CCl` [Example 98] the value was 0.006 µM; for `C[C@H]1Cc2c([nH]c3ccccc23)[C@H](c2ccc(S(=O)(=O)N[C@]34CC5C[C@H](C[C@H](C5)C3)C4)cc2)N1C(=O)CCl` [Example 101], 0.038 µM.

Another assay relates to HT-1080 luc2. Nature of the assay: Cell viability assay (CellTiter Glo), fibrosarcoma HT-1080 luc2. The note with it: Homo sapiens, fibrosarcoma expressing a luciferase gene, 96 hours, CellTiter Glo, read-out: IC50 HT-1080 luc2. The assay is classed as cell-based. On the procedure: as §1, §2
The results of the assay in sarcoma cell lines are given in Table 21a for HT-1080 luc2 (fibrosarcoma expressing a luciferase gene), Table 21b for 143B (osteosarcoma), and Table 21c for SJSA-1 (osteosarcoma).
For `COC(=O)c1ccc([C@@H]2c3[nH]c4ccc(Cl)cc4c3C[C@H](C(=O)OC)N2C(=O)CCl)cc1` [Example 94], the IC50 came to 0.008 µM.
Same read-out and setting: the same measure for `CC[C@H]1Cc2c([nH]c3ccccc23)[C@H](c2ccc(C(=O)OC)cc2)N1C(=O)CCl` [Example 98]: 0.009 µM; for `C[C@H]1Cc2c([nH]c3ccccc23)[C@H](c2ccc(S(=O)(=O)N[C@]34CC5C[C@H](C[C@H](C5)C3)C4)cc2)N1C(=O)CCl` [Example 101]: 0.039 µM.

The test system of a further assay is SK-OV-3. Nature of the assay: Cell viability assay (CellTiter Glo), ovarian cancer cell line SK-OV-3. The format is cell-based. The note with it: Homo sapiens, 96 hours. The method, then:
as §1, §2
As for `COC(=O)c1ccc([C@@H]2c3[nH]c4ccc(Cl)cc4c3C[C@H](C(=O)OC)N2C(=O)CCl)cc1` [Example 94], it took 0.018 µM to reach half-maximal inhibition (IC50).
Consider `CC[C@H]1Cc2c([nH]c3ccccc23)[C@H](c2ccc(C(=O)OC)cc2)N1C(=O)CCl` [Example 98], for which the IC50 came out at 0.03 µM.
On the same count and under the same terms, the same measure for `C[C@H]1Cc2c([nH]c3ccccc23)[C@H](c2ccc(S(=O)(=O)N[C@]34CC5C[C@H](C[C@H](C5)C3)C4)cc2)N1C(=O)CCl` [Example 101]: 0.114 µM.

For a further assay, the system named is Huh7. Nature of the assay: Cell viability assay (CellTiter Glo), hepatocellular carcinoma Huh7. The format is cell-based. The note with it: Homo sapiens, Huh-7, 96 hours. The method, then: as §1, §2
For `COC(=O)c1ccc([C@@H]2c3[nH]c4ccc(Cl)cc4c3C[C@H](C(=O)OC)N2C(=O)CCl)cc1` [Example 94], the IC50 came to 0.026 µM.
`CC[C@H]1Cc2c([nH]c3ccccc23)[C@H](c2ccc(C(=O)OC)cc2)N1C(=O)CCl` [Example 98] returned an IC50 of 0.027 µM.
With `C[C@H]1Cc2c([nH]c3ccccc23)[C@H](c2ccc(S(=O)(=O)N[C@]34CC5C[C@H](C[C@H](C5)C3)C4)cc2)N1C(=O)CCl` [Example 101], half-maximal inhibition (IC50) required 0.072 µM.

For the next assay, the system named is HCC1954. In words: Cell viability assay (CellTiter Glo), breast cancer cell line HCC1954. The assay is classed as cell-based. The note with it: Homo sapiens, 96 hours. On the procedure: as §1, §2
As for `COC(=O)c1ccc([C@@H]2c3[nH]c4ccc(Cl)cc4c3C[C@H](C(=O)OC)N2C(=O)CCl)cc1` [Example 94], the IC50 came to 0.068 µM.
The same measure, in the same setting: the same measure for `CC[C@H]1Cc2c([nH]c3ccccc23)[C@H](c2ccc(C(=O)OC)cc2)N1C(=O)CCl` [Example 98]: 0.063 µM; for `C[C@H]1Cc2c([nH]c3ccccc23)[C@H](c2ccc(S(=O)(=O)N[C@]34CC5C[C@H](C[C@H](C5)C3)C4)cc2)N1C(=O)CCl` [Example 101]: 0.613 µM.

A further assay has as its system MCF-10A. In words: Cell viability assay (CellTiter Glo), non-tumorigenic breast epithelial cell line MCF-10A. The format is cell-based. The note with it: Homo sapiens, 96 hours. In short, it runs like this: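 Non-tumorigenic breast epithelial MCF-10A line, exposed for 96 hours to compound (top concentration up to 30 μM, 3-fold steps, duplicates, final DMSO 0.25% or less). ATP luminescence (CellTiter Glo) normalised to DMSO controls yields IC50, relative IC50 or % top inhibition; paclitaxel served as cytotoxic control.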
The molecule `COC(=O)c1ccc([C@@H]2c3[nH]c4ccc(Cl)cc4c3C[C@H](C(=O)OC)N2C(=O)CCl)cc1` [Example 94] showed an IC50 of 0.46 µM.
The same measure, in the same setting: the same measure for `CC[C@H]1Cc2c([nH]c3ccccc23)[C@H](c2ccc(C(=O)OC)cc2)N1C(=O)CCl` [Example 98]: 0.92 µM; for `C[C@H]1Cc2c([nH]c3ccccc23)[C@H](c2ccc(S(=O)(=O)N[C@]34CC5C[C@H](C[C@H](C5)C3)C4)cc2)N1C(=O)CCl` [Example 101]: 1.07 µM.

Another assay has as its system MDA-MB-435S. Nature of the assay: Cell viability assay (CellTiter Glo), melanoma cell line MDA-MB-435S. The format is cell-based. The note with it: Homo sapiens, 96 hours. On the procedure:
as §1, §2
Take `COC(=O)c1ccc([C@@H]2c3[nH]c4ccc(Cl)cc4c3C[C@H](C(=O)OC)N2C(=O)CCl)cc1` [Example 94]: half-maximal inhibition (IC50) was put at 0.009 µM.
For the molecule `CC[C@H]1Cc2c([nH]c3ccccc23)[C@H](c2ccc(C(=O)OC)cc2)N1C(=O)CCl` [Example 98], the IC50 came out at 0.007 µM.
The same measure, in the same setting: the same measure for `C[C@H]1Cc2c([nH]c3ccccc23)[C@H](c2ccc(S(=O)(=O)N[C@]34CC5C[C@H](C[C@H](C5)C3)C4)cc2)N1C(=O)CCl` [Example 101]: 0.036 µM.

The next assay concerns PANC1. In words: Cell viability assay (CellTiter Glo), pancreatic cell line PANC1. The note with it: Homo sapiens, PANC-1, 96 hours. The format is cell-based. The method, then:
as §1, §2
The results of the assay in the pancreatic cell lines are given in Table 15a for PANC1, Table 15b for MiaPaCa-2, and Table 15c for AsPC-1.
`COC(=O)c1ccc([C@@H]2c3[nH]c4ccc(Cl)cc4c3C[C@H](C(=O)OC)N2C(=O)CCl)cc1` [Example 94] yielded an IC50 of 0.047 µM.
Molecule `CC[C@H]1Cc2c([nH]c3ccccc23)[C@H](c2ccc(C(=O)OC)cc2)N1C(=O)CCl` [Example 98] yielded an IC50 of 0.043 µM.
Molecule `C[C@H]1Cc2c([nH]c3ccccc23)[C@H](c2ccc(S(=O)(=O)N[C@]34CC5C[C@H](C[C@H](C5)C3)C4)cc2)N1C(=O)CCl` [Example 101] gave an IC50 of 0.169 µM.

Another assay relates to HT29. In words: Cell viability assay (CellTiter Glo), colon cancer cell line HT29. The assay is classed as cell-based. The note with it: Homo sapiens, HT-29, 96 hours. The method, then:
as §1, §2
In turn, `COC(=O)c1ccc([C@@H]2c3[nH]c4ccc(Cl)cc4c3C[C@H](C(=O)OC)N2C(=O)CCl)cc1` [Example 94] showed an IC50 of 0.11 µM.
The same measure, in the same setting: for `CC[C@H]1Cc2c([nH]c3ccccc23)[C@H](c2ccc(C(=O)OC)cc2)N1C(=O)CCl` [Example 98] the value was 0.094 µM; for `C[C@H]1Cc2c([nH]c3ccccc23)[C@H](c2ccc(S(=O)(=O)N[C@]34CC5C[C@H](C[C@H](C5)C3)C4)cc2)N1C(=O)CCl` [Example 101], 0.403 µM.

A further assay has as its system Raji. In words: Cell viability assay (CellTiter Glo), lymphoma cell line Raji. The assay is classed as cell-based. The note with it: Homo sapiens, 96 hours. The method, then: as §1, §2
As for `COC(=O)c1ccc([C@@H]2c3[nH]c4ccc(Cl)cc4c3C[C@H](C(=O)OC)N2C(=O)CCl)cc1` [Example 94], half-maximal inhibition (IC50) required 0.009 µM.
Same read-out and setting: for `CC[C@H]1Cc2c([nH]c3ccccc23)[C@H](c2ccc(C(=O)OC)cc2)N1C(=O)CCl` [Example 98] the value was 0.02 µM.
On the same count and under the same terms, the same measure for `C[C@H]1Cc2c([nH]c3ccccc23)[C@H](c2ccc(S(=O)(=O)N[C@]34CC5C[C@H](C[C@H](C5)C3)C4)cc2)N1C(=O)CCl` [Example 101]: 0.075 µM.
